The source of these data is patent publication US9283222B2 (priority 2006, dated 2016).

In general, EC50 refers to the concentration needed to bring the measured effect to its halfway point. Lower therefore signals higher potency in that assay. Usually Ki stands for the equilibrium dissociation constant of an inhibitor or competing ligand from its target.

Like-named read-outs stand apart in the source and are kept apart here.

Experiment [1] has as its target T1, PARP in C41 cells (Homo sapiens (Human), UniProt P09874). The experiment can be described thus: cell-based.
Experiment [2] deals with T1, PARP in C41 cells.
Experiment [3] concerns the target Recombinant Human Poly(ADP-Ribose) Polymerase (PARP), PARP-1 (Homo sapiens (Human), UniProt P09874). The conditions noted are these: read-out: PARP-1 (Ki); Table 3; H analogs versus para-F analogs.
Method: Nicotinamide[2,5′,8-3H]adenine dinucleotide and strepavidin SPA beads were purchased from Amersham Biosiences. […] NAD^+, histone, aminobenzamide, 3-amino benzamide and Calf Thymus DNA (dcDNA) were purchased from Sigma. Stem loop oligonucleotide containing MCAT sequence was obtained from Qiagen. The oligos were dissolved to 1 mM in annealing buffer containing 10 mM Tris HCl pH 7.5, 1 mM EDTA, and 50 mM NaCl, incubated for 5 minutes at 95° C., and annealed at 45° C. for 45 minutes. […] Biotinylated histone H1 was prepared by treating the protein with Sulfo-NHS-LC-Biotin from Pierce. The biotinylation reaction was conducted by slowly and intermittently adding 3 equivalents of 10 mM Sulfo-NHS-LC-Biotin to 100 μM Histone H1 in phosphate-buffered saline, pH 7.5, at 4° C. with gentle vortexing over 1 minute followed by subsequent 4° C. incubation for 1 hour. Streptavidin coated (FlashPlate Plus) microplates were purchased from Perkin Elmer.
PARP1 assay was conducted in PARP assay buffer containing 50 mM Tris pH 8.0, 1 mM DTT, 4 mM MgCl2. […] Auto reactions utilizing SPA bead-based detection were carried out in 100 μL volumes in white 96 well plates.
[4] abbreviates: Table 3, C41 cells, ratio to comparator EC50.

T1 sequence (P09874 whole entry): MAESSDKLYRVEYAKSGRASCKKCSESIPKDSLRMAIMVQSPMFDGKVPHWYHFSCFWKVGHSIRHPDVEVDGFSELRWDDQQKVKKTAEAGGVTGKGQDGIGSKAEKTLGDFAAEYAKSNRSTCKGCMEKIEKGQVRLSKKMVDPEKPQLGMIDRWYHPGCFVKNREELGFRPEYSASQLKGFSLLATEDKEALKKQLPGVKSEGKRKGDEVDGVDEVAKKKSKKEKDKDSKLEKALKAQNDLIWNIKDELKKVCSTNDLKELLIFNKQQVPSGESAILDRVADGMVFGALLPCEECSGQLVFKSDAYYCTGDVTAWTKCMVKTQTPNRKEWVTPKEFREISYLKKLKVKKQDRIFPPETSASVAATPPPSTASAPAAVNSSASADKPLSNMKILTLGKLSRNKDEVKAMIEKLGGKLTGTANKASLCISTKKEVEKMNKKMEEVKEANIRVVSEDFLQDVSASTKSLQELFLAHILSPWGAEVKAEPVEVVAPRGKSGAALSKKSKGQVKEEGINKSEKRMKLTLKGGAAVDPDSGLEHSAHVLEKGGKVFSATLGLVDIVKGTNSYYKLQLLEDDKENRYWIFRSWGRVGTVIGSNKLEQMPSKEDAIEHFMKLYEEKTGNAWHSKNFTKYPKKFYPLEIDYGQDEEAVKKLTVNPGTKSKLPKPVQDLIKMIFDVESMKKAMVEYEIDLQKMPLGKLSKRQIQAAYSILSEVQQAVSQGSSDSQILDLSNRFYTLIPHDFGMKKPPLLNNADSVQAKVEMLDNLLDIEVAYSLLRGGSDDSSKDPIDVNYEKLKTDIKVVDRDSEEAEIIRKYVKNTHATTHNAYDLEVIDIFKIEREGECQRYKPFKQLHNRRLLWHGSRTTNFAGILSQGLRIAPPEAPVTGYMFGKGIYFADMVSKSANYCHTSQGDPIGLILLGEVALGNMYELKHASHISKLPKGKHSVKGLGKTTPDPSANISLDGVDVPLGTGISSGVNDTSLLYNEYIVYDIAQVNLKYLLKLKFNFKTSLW
Sequence of Recombinant Human Poly(ADP-Ribose) Polymerase (PARP), PARP-1 (P09874 whole entry): as above

On to `CCCN1CCC(c2nc3cccc(C(N)=O)c3[nH]2)CC1`, for which the EC50 on PARP in C41 cells [1] (EC50 generally ranged, range over all assays) is 1 to 13 nM; on PARP in C41 cells [1] (mean EC50 for all assays carried out, n=270) it was 3.2 nM.

Take `O=C(c1cccc(Cc2n[nH]c(=O)c3c2CCCC3)c1)N1CCN(c2ccccc2Cl)CC1` [drawing 36]: at PARP in C41 cells [2] (setting [4]), the “Cell EC50 ratio” value was determined as 15. Also, the Ki in experiment [3] was determined as 10 nM.

In the case of `O=C(c1cc(Cc2n[nH]c(=O)c3c2CCCC3)ccc1F)N1CCN(c2ccccc2Cl)CC1` [drawing 37], the “Cell EC50 ratio” value at PARP in C41 cells [2] (setting [4]) was determined as 6. In addition, the inhibitory constant (Ki) in experiment [3] was 5 nM.

Take `O=C(c1cc(Cc2n[nH]c(=O)c3c2CCCC3)ccc1F)N1CCN(c2ccccc2F)CC1` [drawing 39]: the “Cell EC50 ratio” value on PARP in C41 cells [2] (setting [4]) stood at 1.3. The inhibitory constant (Ki) in experiment [3] is 13 nM.

For the compound `O=C(c1cccc(Cc2n[nH]c(=O)c3c2CCCC3)c1)N1CCN(c2ccc(F)cc2)CC1` [drawing 40], the “Cell EC50 ratio” value on PARP in C41 cells [2] (setting [4]) came to 2.2. Also, the Ki in experiment [3] is 6 nM.

For `O=C(c1cc(Cc2n[nH]c(=O)c3c2CCCC3)ccc1F)N1CCN(c2ccc(F)cc2)CC1` [drawing 41], the “Cell EC50 ratio” value at PARP in C41 cells [2] amounted to 0.8. Also, the Ki in experiment [3] is 4 nM.

Regarding `CN1CCCN(C(=O)c2cccc(Cc3n[nH]c(=O)c4c3CCCC4)c2)CC1` [drawing 42], the “Cell EC50 ratio” value at PARP in C41 cells [2] (setting [4]) was determined as 3.8. In addition, the inhibitory constant (Ki) in experiment [3] worked out at 10 nM.

Regarding `CN1CCCN(C(=O)c2cc(Cc3n[nH]c(=O)c4c3CCCC4)ccc2F)CC1` [drawing 43], the “Cell EC50 ratio” value on PARP in C41 cells [2] was determined as 0.6. The inhibition constant Ki in experiment [3] was determined as 1.5 nM.

Take `NC(=O)C1CCCN(C(=O)c2cc(Cc3n[nH]c(=O)c4c3CCCC4)ccc2F)C1` (stereo not shown) [drawing 45]: the “Cell EC50 ratio” value on PARP in C41 cells [2] (setting [4]) came out at 28. Further, the Ki in experiment [3] was 3 nM.

For the compound `O=C(c1cccc(Cc2n[nH]c(=O)c3c2CCCC3)c1)N1CCC(O)CC1` [drawing 46], the “Cell EC50 ratio” value at PARP in C41 cells [2] (setting [4]) was 13. In addition, the Ki in experiment [3] worked out at 5 nM.

Turning to `O=C(c1cc(Cc2n[nH]c(=O)c3c2CCCC3)ccc1F)N1CCC(O)CC1` [drawing 47], the “Cell EC50 ratio” value at PARP in C41 cells [2] (setting [4]) amounted to 2. Also, the inhibition constant (Ki) in experiment [3] was 1.3 nM.

As for `NC(=O)C1CCN(C(=O)c2cccc(Cc3n[nH]c(=O)c4c3CCCC4)c2)CC1` [drawing 48], the “Cell EC50 ratio” value at PARP in C41 cells [2] (setting [4]) was 215. The Ki in experiment [3] was determined as 5 nM.

With `NC(=O)C1CCN(C(=O)c2cc(Cc3n[nH]c(=O)c4c3CCCC4)ccc2F)CC1` [drawing 49], at PARP in C41 cells [2] (setting [4]), the “Cell EC50 ratio” value is listed as 25. For the same compound, in experiment [3], the Ki came to 2.7 nM.

With `CCN(CC)C(=O)C1CCCN(C(=O)c2cc(Cc3n[nH]c(=O)c4c3CCCC4)ccc2F)C1` (stereo not shown) [drawing 51], the “Cell EC50 ratio” value at PARP in C41 cells [2] (setting [4]) amounted to 17. Further, in experiment [3], the inhibitory constant (Ki) is 6 nM.

As to `CN(C)CCN(C)C(=O)c1cc(Cc2n[nH]c(=O)c3c2CCCC3)ccc1F` [drawing 53], the “Cell EC50 ratio” value at PARP in C41 cells [2] (setting [4]) was 0.7. Also, in experiment [3], the inhibitory constant (Ki) is 3.6 nM.

As to `CN1CCN(CCNC(=O)c2cccc(Cc3n[nH]c(=O)c4c3CCCC4)c2)CC1` [drawing 54], the “Cell EC50 ratio” value on PARP in C41 cells [2] (setting [4]) amounted to 31. The Ki in experiment [3] was found to be 24 nM.

For the compound `CN1CCN(CCNC(=O)c2cc(Cc3n[nH]c(=O)c4c3CCCC4)ccc2F)CC1` [drawing 55], the “Cell EC50 ratio” value at PARP in C41 cells [2] (setting [4]) amounted to 0.6. For the same compound, in experiment [3], the inhibitory constant (Ki) was 1.1 nM.
